From US4004023A, “1-(4-Butylphenyl)-1-(3,4-methylenedioxyphenyl)-2-nitroalkanes and synergistic insecticidal mixtures therewith” (Mobil Oil Corporation, priority 1975, dated 1977)

Experiments:
Assay type in all cases: in vivo
Southern armyworm = assay: whole plant or invertebrate; conditions: Spodoptera eridania, in Phaseolus lunatus, third or fourth instar larvae, 48 to 72 hour, read-out: percent kill, Southern armyworm (SA)
Experimental: (§1) The new 1-(4-butylphenyl)-1-(3,4-methylenedioxyphenyl)-2-nitroalkanes of this invention (Examples 4-6) were evaluated in standard greenhouse insecticide tests using housefly (HF), Mexican bean beetle (MB), Southern armyworm (SA) and yellow fever mosquito (YF). The rates of application were 500 and 100 ppm of active ingredient except in the mosquito test where test rates were 10 and 1 ppm. The results as set forth in Table I below indicate the percent kill of each insect species.
(§2) Southern armyworm and Mexican bean beetle; lima bean leaves of uniform size were momentarily dipped in a water-acetone solution of the test compound and the treated leaves were then placed on moistened filter paper in 9 cm. petri dishes and allowed to air dry. When dry, five, third or fourth instar larvae were introduced and encouraged to feed on the treated foliage by means of confinement. The dishes were closed and held for observation of mortality and feeding during a 48 to 72 hour period.

Mexican bean beetle = assay: whole plant or invertebrate; conditions: Epilachna varivestis, third or fourth instar larvae, 48 to 72 hour, read-out: percent kill, Mexican bean beetle (MB)
Experimental: as §1, §2

housefly [1] = assay: whole plant or invertebrate; conditions: Musca domestica, adult houseflies, mortality at 24 hours, read-out: percent kill, housefly (HF)
Experimental: as §1
(§3) Housefly; 1 milliliter of an aqueous solution or suspension of the test compound was pipeted into a 9 cm. petri dish containing filter paper and 0.1 gram of granular sugar. Ten adult houseflies were admitted and the dish closed. Observations were made periodically for knockdown and at 24 hours for mortality.

yellow fever mosquito = assay: whole plant or invertebrate; conditions: Aedes aegypti, fourth stage larvae, 24 hour exposure, read-out: percent kill, yellow fever mosquito (YF); for mortality at 1 ppm: 1 ppm (line printed as 100 ppm; footnote: 10 and 1 ppm for YF); for mortality at 10 ppm: 10 ppm (line printed as 500 ppm; footnote: 10 and 1 ppm for YF)
Experimental: as §1
Yellow fever mosquito; fourth stage larvae were exposed to a solution of the active compound in water. The active material was initially dissolved in acetone and then added to the water. The compounds were screened at 10 ppm and at 1 ppm using approximately 10 larvae per 100 ml of treated water. Each treatment was replicated twice. Mortality was determined after 24 hour exposure.

housefly [2] = assay: insecticide synergist test of mixtures on housefly; conditions: 25 ppm (0.0025 wt. %) total of both active ingredients; numbers in parentheses are % in mixture; 1440 min
Experimental: as §3
The new 1-(4-butylphenyl)-1-(3,4-methylenedioxyphenyl)-2-nitroalkanes of this invention were evaluated as insecticide synergists in standard insecticide tests. In general the compounds of this invention were combined with the insecticide -- 1-(p-tert-butylphenyl)-1-(p-ethoxyphenyl)-2-nitrobutane (pending application Serial No. 410,935, filed October 29, 1973) designated as Example 8 above -- in varying proportions starting from, for example, 90% Example 4, 5 or 6 plus 10% Example 8 and decreasing to, for example 10% Example 4, 5 or 6, plus 90% Example 8. In all cases, the total sum of active ingredients (i.e. Examples 4, 5 or 6 plus 8) equaled 25 ppm. These mixtures were tested on housefly following the standard greenhouse test procedure, outlined above. The results as set forth below indicate the percent kill (or percent control) of the insect species: […]

SMILES	mortality at 100 ppm (Southern armyworm)	mortality at 500 ppm (Southern armyworm)	mortality at 100 ppm (Mexican bean beetle)	mortality at 500 ppm (Mexican bean beetle)	mortality at 100 ppm (housefly [1])	mortality at 500 ppm (housefly [1])	mortality at 1 ppm (yellow fever mosquito)	mortality at 10 ppm (yellow fever mosquito)	% CONTROL (percent kill or percent control), housefly (housefly [2])
CCC(C(c1ccc(C(C)(C)C)cc1)c1ccc2c(c1)OCO2)[N+](=O)[O-] (centres unmarked) [Example 4, 1-(4-tert-Butylphenyl)-1-(3,4-methylenedioxyphenyl)-2-nitrobutane]	100%	100%	100%	100%	20%	100%	40%	100%	
CC(C(c1ccc(C(C)(C)C)cc1)c1ccc2c(c1)OCO2)[N+](=O)[O-] (centres unmarked) [Example 5, 1-(4-tert-Butylphenyl)-1-(3,4-methylenedioxyphenyl)-2-nitropropane]	80%	100%	100%	100%	10%	100%	100%	100%	
CCC(C)c1ccc(C(c2ccc3c(c2)OCO3)C(CC)[N+](=O)[O-])cc1 (centres unmarked) [Example 6, 1-(4-sec-Butylphenyl)-1-(3,4-methylenedioxyphenyl)-2-nitrobutane]	30%	100%	90%	100%	100%	100%	100%	100%	0%
CCOc1ccc(C(c2ccc(C(C)(C)C)cc2)C(CC)[N+](=O)[O-])cc1 (centres unmarked) [Example 8, 1-(p-tert-Butylphenyl)-1-(p-ethoxyphenyl)-2-nitrobutane]									40%
